Measured values from patent US20110281812A1, “Compounds” (priority 2009, published 2011).

test system: IL-6 production in LPS-stimulated murine spleenocytes; assay: Inhibition of IL-6 production in LPS-stimulated murine spleenocytes in vitro; type: cell-based; conditions: Mus musculus, 50 μM concentration of the compound, read-out: inhibition of interleukin-6 (IL-6) production
Experimental: Test and reference substances used in an in vitro assays were dissolved in dimethyl sulfoxide (DMSO) (Sigma Chemical Co., USA) at a concentration of 50 mM and were further diluted to test concentrations in appropriate cell culture medium.
After cervical dislocation, mouse spleens were removed using sterile dissection tools. Spleens were transferred to a pre-wetted cell strainer in a 50 mL sterile conical tube and cell suspension was made by gentle puddle. Cells were centrifuged (20 min, 300×g) and resuspended in 2 mL of sterile phosphate buffered saline (PBS) (Sigma Chemical Co., USA). Red blood cells were lysed by addition of 3 mL of sterile water and occasionally gentle shaking for 1 minute. Afterwards, the tube was filled to 40 mL with DMEM medium and centrifuged (20 min, 300×g). Cells were resuspended in DMEM supplemented with 1% FBS and seeded in a 24-well plate, 1×10^6 cells per mL medium.
Final concentrations of 50 μM, 25 μM, 12.5 μM, 6.3 μM and 3.1 μM of test compounds were prepared by diluting a 50 mM DMSO stock in Dulbecco's modified Eagle medium (DMEM) (Gibco, USA) supplemented with 1% heat inactivated fetal bovine serum (FBS) (BioWest, Ringmer, United Kingdom).
Cells were pre-incubated with the test compounds for 3 h at 37° C., in an atmosphere of 5% CO2 and 90% humidity. Afterwards, cells were stimulated with 1 μg/mL lipopolysaccharide (LPS, E. coli 0111:B4, Sigma Chemical Co., USA) and incubated overnight. Concentration of IL-6 was determined in cell supernatants by sandwich ELISA using capture and detection antibodies (R&D Systems, USA) according to the manufacturer's recommendations.
Inhibition (as percentage) was calculated using the following formula:
% inhibition=[1−(concentration of IL-6 in sample−concentration of IL-6 in negative control)/(concentration of IL-6 in positive control−concentration of IL-6 in negative control)]×100.
The positive control refers to LPS-stimulated samples that were not preincubated with the compounds.
The negative control refers to unstimulated and untreated samples.

**Q.** With `CC[C@H]1OC(=O)[C@H](C)[C@@H](O[C@H]2C[C@@](C)(OC)[C@@H](O)[C@H](C)O2)[C@H](C)[C@@H](O[C@@H]2O[C@H](C)C[C@H](N(C)C)[C@H]2OCCCNC(C)=O)[C@](C)(O)C[C@@H](C)CN(C)[C@H](C)[C@@H](O)[C@]1(C)O` [Example 1, 2′-O[3-(Acetylamino)propyl]-9-deoxo-9a-methyl-9a-aza-9a-homoerythromycin A] as the compound, how does the inhibition at 50 µM read?
**A.** The inhibition at 50 µM was over 40%.

**Q.** For `CC[C@H]1OC(=O)[C@H](C)[C@@H](O[C@H]2C[C@@](C)(OC)[C@@H](O)[C@H](C)O2)[C@H](C)[C@@H](O[C@@H]2O[C@H](C)C[C@H](N(C)C)[C@H]2OCCCNC(=O)C(C)C)[C@](C)(O)C[C@@H](C)CN(C)[C@H](C)[C@@H](O)[C@]1(C)O` [Example 3, 2′-O-{3-[(2-Methylpropanoyl)amino]propyl}-9-deoxo-9a-methyl-9a-aza-9a-homoerythromycin A], which inhibition at 50 µM is on record?
**A.** Its inhibition at 50 µM is over 40%.

**Q.** Which inhibition at 50 µM does the source give for `CC[C@H]1OC(=O)[C@H](C)[C@@H](O[C@H]2C[C@@](C)(OC)[C@@H](O)[C@H](C)O2)[C@H](C)[C@@H](O[C@@H]2O[C@H](C)C[C@H](N(C)C)[C@H]2OCCCNC(=O)C(C)(C)C)[C@](C)(O)C[C@@H](C)CN(C)[C@H](C)[C@@H](O)[C@]1(C)O` [Example 4, 2′-O-{3-[(2,2-Dimethylpropanoyl)amino]propyl}-9-deoxo-9a-methyl-9a-aza-9a-homoerythromycin A] here?
**A.** The inhibition at 50 µM was over 40%.

**Q.** With `CC[C@H]1OC(=O)[C@H](C)[C@@H](O[C@H]2C[C@@](C)(OC)[C@@H](O)[C@H](C)O2)[C@H](C)[C@@H](O[C@@H]2O[C@H](C)C[C@H](N(C)C)[C@H]2OCCCNC(=O)CN(CC)CC)[C@](C)(O)C[C@@H](C)CN(C)[C@H](C)[C@@H](O)[C@]1(C)O` [Example 5, 2′-O-{3-[(N,N-Diethylglycyl)amino]propyl}-9-deoxo-9a-methyl-9a-aza-9a-homoerythromycin A] as the compound, how does the inhibition at 50 µM read?
**A.** The inhibition at 50 µM was over 40%.

**Q.** For `CC[C@H]1OC(=O)[C@H](C)[C@@H](O[C@H]2C[C@@](C)(OC)[C@@H](O)[C@H](C)O2)[C@H](C)[C@@H](O[C@@H]2O[C@H](C)C[C@H](N(C)C)[C@H]2OCCCNC(=O)c2ccncc2)[C@](C)(O)C[C@@H](C)CN(C)[C@H](C)[C@@H](O)[C@]1(C)O` [Example 6, 2′-O-{3-[(4-Pyridinylcarbonyl)amino]propyl}-9-deoxo-9a-methyl-9a-aza-9a-homoerythromycin A], which inhibition at 50 µM is on record?
**A.** The inhibition at 50 µM was over 40%.

**Q.** `CC[C@H]1OC(=O)[C@H](C)[C@@H](O[C@H]2C[C@@](C)(OC)[C@@H](O)[C@H](C)O2)[C@H](C)[C@@H](O[C@@H]2O[C@H](C)C[C@H](N(C)C)[C@H]2OCCCNC(=O)[C@@H](N)Cc2ccccc2)[C@](C)(O)C[C@@H](C)CN(C)[C@H](C)[C@@H](O)[C@]1(C)O` [Example 10, 2′-O-[3-(L-phenylalanylamino)propyl]-9-deoxo-9a-methyl-9a-aza-9a-homoerythromycin A] was tested. Which inhibition at 50 µM did it give?
**A.** The inhibition at 50 µM was over 40%.

**Q.** For `CC[C@H](C)[C@H](N)C(=O)NCCCO[C@H]1[C@H](O[C@@H]2[C@@H](C)[C@H](O[C@H]3C[C@@](C)(OC)[C@@H](O)[C@H](C)O3)[C@@H](C)C(=O)O[C@H](CC)[C@@](C)(O)[C@H](O)[C@@H](C)N(C)C[C@H](C)C[C@@]2(C)O)O[C@H](C)C[C@@H]1N(C)C` [Example 11, 2′-O-[3-(L-isoleucylamino)propyl]-9-deoxo-9a-methyl-9a-aza-9a-homoerythromycin A], which inhibition at 50 µM is on record?
**A.** Its inhibition at 50 µM is over 40%.

**Q.** For `CC[C@H]1OC(=O)[C@H](C)[C@@H](O[C@H]2C[C@@](C)(OC)[C@@H](O)[C@H](C)O2)[C@H](C)[C@@H](O[C@@H]2O[C@H](C)C[C@H](N(C)C)[C@H]2OCCCNC(=O)[C@@H](N)CCSC)[C@](C)(O)C[C@@H](C)CN(C)[C@H](C)[C@@H](O)[C@]1(C)O` [Example 12, 2′-O-[3-(L-methionylamino)propyl]-9-deoxo-9a-methyl-9a-aza-9a-homoerythromycin A], which inhibition at 50 µM is on record?
**A.** Its inhibition at 50 µM is over 40%.

**Q.** How did the inhibition at 50 µM turn out when `CC[C@H]1OC(=O)[C@H](C)[C@@H](O[C@H]2C[C@@](C)(OC)[C@@H](O)[C@H](C)O2)[C@H](C)[C@@H](O[C@@H]2O[C@H](C)C[C@H](N(C)C)[C@H]2OCCCNC(=O)c2cnccn2)[C@](C)(O)C[C@@H](C)CN(C)[C@H](C)[C@@H](O)[C@]1(C)O` [Example 23, 2′-O-{3-[(2-Pyrazinylcarbonyl)amino]propyl}-9-deoxo-9a-methyl-9a-aza-9a-homoerythromycin A] was run?
**A.** Its inhibition at 50 µM is over 40%.

**Q.** `CC[C@H]1OC(=O)[C@H](C)[C@@H](O[C@H]2C[C@@](C)(OC)[C@@H](O)[C@H](C)O2)[C@H](C)[C@@H](O[C@@H]2O[C@H](C)C[C@H](N(C)C)[C@H]2OCCCNC(=O)c2cc(C)oc2C)[C@](C)(O)C[C@@H](C)CN(C)[C@H](C)[C@@H](O)[C@]1(C)O` [Example 24, 2′-O-(3-{[(2,5-Dimethyl-3-furanyl)carbonyl]amino}propyl)-9-deoxo-9a-methyl-9a-aza-9a-homoerythromycin A] was tested. Which inhibition at 50 µM did it give?
**A.** Its inhibition at 50 µM is over 40%.

**Q.** With `CC[C@H]1OC(=O)[C@H](C)[C@@H](O[C@H]2C[C@@](C)(OC)[C@@H](O)[C@H](C)O2)[C@H](C)[C@@H](O[C@@H]2O[C@H](C)C[C@H](N(C)C)[C@H]2OCCCNC(=O)c2cc(C)n(C)c2C)[C@](C)(O)C[C@@H](C)CN(C)[C@H](C)[C@@H](O)[C@]1(C)O` [Example 26, 2′-O-(3-{[(1,2,5-Trimethyl-1H-pyrrol-3-yl)carbonyl]amino}propyl)-9-deoxo-9a-methyl-9a-aza-9a-homoerythromycin A] as the compound, how does the inhibition at 50 µM read?
**A.** The inhibition at 50 µM was over 40%.

**Q.** With `CC[C@H]1OC(=O)[C@H](C)[C@@H](O[C@H]2C[C@@](C)(OC)[C@@H](O)[C@H](C)O2)[C@H](C)[C@@H](O[C@@H]2O[C@H](C)C[C@H](N(C)C)[C@H]2OCCCNC(=O)c2cncn2C)[C@](C)(O)C[C@@H](C)CN(C)[C@H](C)[C@@H](O)[C@]1(C)O` [Example 27, 2′-O-(3-{[(1-Methyl-1H-imidazol-5-yl)carbonyl]amino}propyl)-9-deoxo-9a-methyl-9a-aza-9a-homoerythromycin A] as the compound, how does the inhibition at 50 µM read?
**A.** The inhibition at 50 µM was over 40%.

**Q.** Which inhibition at 50 µM does the source give for `CC[C@H]1OC(=O)[C@H](C)[C@@H](O[C@H]2C[C@@](C)(OC)[C@@H](O)[C@H](C)O2)[C@H](C)[C@@H](O[C@@H]2O[C@H](C)C[C@H](N(C)C)[C@H]2OCCCNC(=O)c2cn(C)nc2C(F)(F)F)[C@](C)(O)C[C@@H](C)CN(C)[C@H](C)[C@@H](O)[C@]1(C)O` [Example 28, 2′-O-[3-({[1-Methyl-3-(trifluoromethyl)-1H-pyrazol-4-yl]carbonyl}amino)propyl]-9-deoxo-9a-methyl-9a-aza-9a-homoerythromycin A] here?
**A.** Its inhibition at 50 µM is over 40%.

**Q.** For `CC[C@H]1OC(=O)[C@H](C)[C@@H](O[C@H]2C[C@@](C)(OC)[C@@H](O)[C@H](C)O2)[C@H](C)[C@@H](O[C@@H]2O[C@H](C)C[C@H](N(C)C)[C@H]2OCCCNC(=O)c2ccc(Cl)cc2)[C@](C)(O)C[C@@H](C)CN(C)[C@H](C)[C@@H](O)[C@]1(C)O` [Example 29, 2′-O-(3-{[(4-Chlorophenyl)carbonyl]amino}propyl)-9-deoxo-9a-methyl-9a-aza-9a-homoerythromycin A], which inhibition at 50 µM is on record?
**A.** The inhibition at 50 µM was over 40%.

**Q.** Which inhibition at 50 µM does the source give for `CC[C@H]1OC(=O)[C@H](C)[C@@H](O[C@H]2C[C@@](C)(OC)[C@@H](O)[C@H](C)O2)[C@H](C)[C@@H](O[C@@H]2O[C@H](C)C[C@H](N(C)C)[C@H]2OCCCNC(=O)c2ccccn2)[C@](C)(O)C[C@@H](C)CN(C)[C@H](C)[C@@H](O)[C@]1(C)O` [Example 31, 2′-O-{3-[(2-Pyridinylcarbonyl)amino]propyl}-9-deoxo-9a-methyl-9a-aza-9a-homoerythromycin A] here?
**A.** Its inhibition at 50 µM is over 40%.

**Q.** How did the inhibition at 50 µM turn out when `CC[C@H]1OC(=O)[C@H](C)[C@@H](O[C@H]2C[C@@](C)(OC)[C@@H](O)[C@H](C)O2)[C@H](C)[C@@H](O[C@@H]2O[C@H](C)C[C@H](N(C)C)[C@H]2OCCCNC(=O)c2cc(O)ccc2O)[C@](C)(O)C[C@@H](C)CN(C)[C@H](C)[C@@H](O)[C@]1(C)O` [Example 32, 2′-O-{3-[(2,5-Dihydroxyphenylcarbonyl)amino]propyl}-9-deoxo-9a-methyl-9a-aza-9a-homoerythromycin A] was run?
**A.** The inhibition at 50 µM was over 40%.

**Q.** How did the inhibition at 50 µM turn out when `CC[C@H]1OC(=O)[C@H](C)[C@@H](O[C@H]2C[C@@](C)(OC)[C@@H](O)[C@H](C)O2)[C@H](C)[C@@H](O[C@@H]2O[C@H](C)C[C@H](N(C)C)[C@H]2OCCCNC(=O)c2ccc(N)cc2O)[C@](C)(O)C[C@@H](C)CN(C)[C@H](C)[C@@H](O)[C@]1(C)O` [Example 33, 2′-O-(3-{[(4-Amino-2-hydroxyphenyl)carbonyl]amino}propyl)-9-deoxo-9a-methyl-9a-aza-9a-homoerythromycin A] was run?
**A.** The inhibition at 50 µM was over 40%.

**Q.** Which inhibition at 50 µM does the source give for `CC[C@H]1OC(=O)[C@H](C)[C@@H](O[C@H]2C[C@@](C)(OC)[C@@H](O)[C@H](C)O2)[C@H](C)[C@@H](O[C@@H]2O[C@H](C)C[C@H](N(C)C)[C@H]2OCCCNC(=O)c2cccnc2Cl)[C@](C)(O)C[C@@H](C)CN(C)[C@H](C)[C@@H](O)[C@]1(C)O` [Example 34, 2′-O-(3-{[(2-Chloro-3-pyridinyl)carbonyl]amino}propyl)-9-deoxo-9a-methyl-9a-aza-9a-homoerythromycin A] here?
**A.** Its inhibition at 50 µM is over 40%.
